This experiment concerns the target T1, SIRT1 (Homo sapiens, UniProt Q96EB6).
T1 sequence (Q96EB6 1-747): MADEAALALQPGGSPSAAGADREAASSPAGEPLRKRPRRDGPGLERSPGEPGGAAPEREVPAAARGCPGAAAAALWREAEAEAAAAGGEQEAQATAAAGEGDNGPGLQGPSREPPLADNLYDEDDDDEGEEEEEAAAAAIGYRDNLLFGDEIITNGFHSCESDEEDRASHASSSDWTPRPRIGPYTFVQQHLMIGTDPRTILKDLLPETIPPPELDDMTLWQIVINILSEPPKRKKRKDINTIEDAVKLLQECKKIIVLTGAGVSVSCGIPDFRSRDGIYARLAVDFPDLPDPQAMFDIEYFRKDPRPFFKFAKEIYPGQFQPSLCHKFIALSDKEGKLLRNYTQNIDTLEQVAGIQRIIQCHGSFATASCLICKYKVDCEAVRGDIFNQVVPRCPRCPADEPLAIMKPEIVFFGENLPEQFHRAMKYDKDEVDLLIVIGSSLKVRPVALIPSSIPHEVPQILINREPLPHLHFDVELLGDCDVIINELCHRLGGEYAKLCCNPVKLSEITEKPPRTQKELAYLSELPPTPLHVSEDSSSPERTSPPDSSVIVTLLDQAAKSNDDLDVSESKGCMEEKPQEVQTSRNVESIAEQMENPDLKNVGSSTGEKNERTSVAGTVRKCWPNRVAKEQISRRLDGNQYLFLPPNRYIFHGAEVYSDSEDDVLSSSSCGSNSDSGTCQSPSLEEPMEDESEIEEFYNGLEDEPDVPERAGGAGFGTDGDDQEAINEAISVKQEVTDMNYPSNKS
Put plainly: SIRT1 mass spectrometry (MS) based deacetylation assay. As to FOLD ACT. MS: test concentration or dose not given here. Type of experiment: biochemical.

Where [1] appears, read: fold activation of SIRT1 as determined by MS.
The mark [2] stands for this setting: SIRT1 activation, mass spectrometry assay, read-out: ED50 MS ASSAY.
Setting [3] is: fold activation of SIRT1, mass spectrometry assay.

Where two headings read alike, the source gives them in different places.

Compound `CN(C)c1cccc(C(=O)Nc2cccc(-c3nc4ncccc4s3)c2)c1` [Compound 200] had an EC50 below 5 µM. In addition, the “FOLD ACT. MS” value under setting [1] was “B (B (Fold Activation <250%))”.
Consider `COc1ccc(C(=O)Nc2cccc(-c3nc4ncccc4s3)c2)cc1OC` [Compound 201], for which, under setting [2], the EC50 is 5 to 50 µM. In addition, the “FOLD ACT. MS” value under setting [1] was “B (B (Fold Activation <250%))”.
`COc1ccc(C(=O)Nc2cccc(-c3nc4ncccc4s3)c2)c(OC)c1` [Compound 202]: the EC50 under setting [2] is below 5 µM. The “FOLD ACT. MS” value under setting [1] was “B (B (Fold Activation <250%))”.
With `COc1ccc(C(=O)Nc2ccccc2-c2cn3ccsc3n2)cc1OC` [Compound 203], the EC50 under setting [2] was below 5 µM. Further, the “FOLD ACT. MS” value under setting [1] is on record as “B (B (Fold Activation <250%))”.
In the case of `COc1cc(C(=O)Nc2ccccc2-c2cn3ccsc3n2)cc(OC)c1OC` [Compound 204], the EC50 under setting [2] is below 5 µM. Besides, the “FOLD ACT. MS” value under setting [1] is listed as “A (A (Fold activation >250%))”.
Regarding `COc1ccc(C(=O)Nc2ccccc2-c2cn3c(CN(C)C)csc3n2)cc1OC` [Compound 205], under setting [2], the EC50 fell in the range of 5 to 50 µM. Further, the “FOLD ACT. MS” value under setting [1] is given as “A (A (Fold activation >250%))”.
`COc1cc(C(=O)Nc2ccccc2-c2cn3c(CN(C)C)csc3n2)cc(OC)c1OC` [Compound 206]: the EC50 under setting [2] is 5 to 50 µM. The “FOLD ACT. MS” value under setting [1] was “A (A (Fold activation >250%))”.
With `COc1ccc(C(=O)Nc2ccccc2-c2cn3c(CN4CCNCC4)csc3n2)cc1OC` [Compound 207], the EC50 under setting [2] lay within 5 to 50 µM. Also, the “FOLD ACT. MS” value under setting [1] is given as “A (A (Fold activation >250%))”.
For `COc1cc(C(=O)Nc2ccccc2-c2cn3c(CN4CCNCC4)csc3n2)cc(OC)c1OC` [Compound 208], the EC50 under setting [2] is 5 to 50 µM. Further, under setting [1], the “FOLD ACT. MS” value was “A (A (Fold activation >250%))”.
`COc1ccc(C(=O)Nc2ccccc2-c2cn3c(CN4CCOCC4)csc3n2)cc1OC` [Compound 209]: under setting [2], the EC50 lay in the range of 5 to 50 µM. Also, the “FOLD ACT. MS” value under setting [1] is on record as “A (A (Fold activation >250%))”.
Turning to `COc1cc(C(=O)Nc2ccccc2-c2cn3c(CN4CCOCC4)csc3n2)cc(OC)c1OC` [Compound 210], the EC50 under setting [2] lay in the range of 5 to 50 µM. For the same compound, under setting [1], the “FOLD ACT. MS” value is reported as “B (B (Fold Activation <250%))”.
For the compound `COc1ccc(C(=O)Nc2cccc(-c3nc4ccccc4[nH]3)c2)c(OC)c1` [Compound 211], under setting [2], the EC50 was below 5 µM. Moreover, the “FOLD ACT. MS” value under setting [1] is “B (B (Fold Activation <250%))”.
`COc1cccc(C(=O)Nc2cccc(-c3nc4cccnc4s3)c2)c1` [Compound 212]: the EC50 under setting [2] fell in the range of 5 to 50 µM. Besides, under setting [1], the “FOLD ACT. MS” value is “B (B (Fold Activation <250%))”.
Take `COc1ccc(C(=O)Nc2cccc(-c3nc4cccnc4s3)c2)c(OC)c1` [Compound 213]: the EC50 under setting [2] is below 5 µM. Further, the “FOLD ACT. MS” value under setting [1] was “B (B (Fold Activation <250%))”.
For `COc1cccc(C(=O)Nc2cccc(-c3nc4cccnc4s3)c2)c1OC` [Compound 214], the EC50 under setting [2] was in the range of 5 to 50 µM. The “FOLD ACT. MS” value under setting [1] is “B (B (Fold Activation <250%))”.
In the case of `COc1cc(OC)cc(C(=O)Nc2cccc(-c3nc4cccnc4s3)c2)c1` [Compound 215], the EC50 under setting [2] was below 5 µM. Under setting [1], the “FOLD ACT. MS” value was “B (B (Fold Activation <250%))”.
For `COc1ccc(C(=O)Nc2cccc(-c3nc4cccnc4s3)c2)cc1` [Compound 216], the EC50 under setting [2] was below 5 µM. The “FOLD ACT. MS” value under setting [1] is “B (B (Fold Activation <250%))”.
On the same counts, the results for `COc1cc(C(=O)Nc2cccc(-c3nc4cccnc4s3)c2)cc(OC)c1OC` [Compound 217] are below 5 µM and “A (A (Fold activation >250%))”.
With `COc1cc(C(=O)Nc2cccc(-c3cn4cccnc4n3)c2)cc(OC)c1OC` [Compound 218], the EC50 under setting [2] is below 5 µM. The “FOLD ACT. MS” value under setting [3] is listed as “A (A (Fold activation >250%))”.
On to `COc1cc(C(=O)Nc2cccc(-c3nc4ncccn4c3C)c2)cc(OC)c1OC` [Compound 219], for which the EC50 under setting [2] was 5 to 50 µM. For the same compound, the “FOLD ACT. MS” value under setting [3] was “A (A (Fold activation >250%))”.
For the compound `O=C(Nc1cccc(-c2nc3ccncc3s2)c1)c1ccco1` [Compound 221], the EC50 under setting [2] lay in the range of 5 to 50 µM. For the same compound, under setting [3], the “FOLD ACT. MS” value was “B (B (Fold Activation <250%))”.

The values above are taken from patent US8044198B2, “Sirtuin modulating compounds” (Sirtris Pharmaceuticals, Inc., priority 2005, dated 2011).
